Measured values from article PMC3376404 (Bioorganic & medicinal chemistry letters, 2012).
“And” between values parts separate entries of the source, which are not always exact repeats. Equal entries are not always repeated. Where two headings read alike, the source gives them in different places.

Key:
[1] = Reaction with the biological thiol glutathione; type: physicochemical; conditions: for kobs (pseudo-first-order rate constant, + thiol): compound 70 μM, 24 °C; for kobs (pseudo-first-order rate constant, + thiol) / second-order rate constant for reaction with GSH: GSH 700 μM, MOPS 300 mM, pH 7, MeCN 25% v/v; for second-order rate constant for reaction with GSH: estimated from kobs
[2] = Decomposition; type: physicochemical; conditions: for kobs (apparent rate constant for decomposition): no thiol, compound 70 μM, MOPS 250 mM, pH 7, MeCN 25% v/v, 24 °C
[3] = 100 μM 1 in HEPES, 250 mM, pH 7, 24 °C, no organic co-solvent; cited from earlier work
[4] = HEPES buffer, 50 mM, pH 7, 24 °C, no organic co-solvent; cited from earlier work

| SMILES | kobs (pseudo-first-order rate constant, + thiol) [1] | second-order rate constant for reaction with GSH [1] | kobs (apparent rate constant for decomposition) [2] | kobs (decomposition) ([2]; 300 mM MOPS, pH 7.0) | kobs (decomposition) ([2]; 500 mM MOPS) | kobs (decomposition) ([2]; pH 6.5, 300 mM MOPS) | kobs (decomposition) ([2]; pH 7.5, 300 mM MOPS) | stability relative to the cis isomer in aqueous buffered solution ([2]; trans isomer 6 versus cis isomer 5) | times less reactive toward GSH than compound 5 ([1]; relative to 5) | rate constant (decomposition) [3] | t1/2 (decomposition) [3] | times more stable than 5 against decomposition in aqueous buffer ([2]; relative to 5) | times more stable than 6 against decomposition in aqueous buffer ([2]; relative to 6) | second-order rate constant for reaction with GSH [4] |
| --- | --- | --- | --- | --- | --- | --- | --- | --- | --- | --- | --- | --- | --- | --- |
| CC1(C)[S+]([O-])SC(=O)[C@@]1(C)O (some centres unmarked) [Compound 5, 4-hydroxy-4,5,5-trimethyl-1,2-dithiolan-3-one-1-oxide] | 24.3 ± 0.1 × 10^−2 min^-1 | 5.73 M⁻¹ s⁻¹ | 13.2 ± 0.01 × 10^−3 min^-1 |  |  |  |  |  |  |  |  |  |  |  |
| CC1(C)[S+]([O-])SC(=O)[C@]1(C)O (some centres unmarked) [Compound 6, 4-hydroxy-4,5,5-trimethyl-1,2-dithiolan-3-one-1-oxide] | 18.3 ± 0.2 × 10^−2 min^-1 | 4.35 M⁻¹ s⁻¹ | 6.2 ± 0.6 × 10^−3 min^-1 | 1.5 ± 0.2 × 10^−2 min^-1 and 1.5 × 10^−2 min^-1 | 1.9 ± 0.2 × 10^−2 min^-1 | 0.0087 min⁻¹ | 0.047 min⁻¹ | approximately two times more stable |  |  |  |  |  |  |
| C/C1=C\[C@@H](O)C(=O)/C=C/C=C\c2csc(n2)[C@@H](C)NC(=O)C[C@@]2(CC1)[S+]([O-])SC(=O)[C@]2(C)O (some centres unmarked) [Compound 1, Leinamycin, reference compound] | 6.67 ± 0.01 × 10^−2 min^-1 | 1.58 M⁻¹ s⁻¹ | 0.408 ± 0.001 × 10^−3 min^-1 |  |  |  |  |  | 3.6 times | 0.00072 min⁻¹ | 16.1 h | approximately 30 times | ~15 times | 10.4 M⁻¹ s⁻¹ |
